US20220339178A1, “COMPOSITIONS AND METHODS FOR COGNITIVE PROTECTION OF POLLINATORS AGAINST PESTICIDES” (priority 2019, published 2022)

Columns and labels:
[1] = system: Honey bee foragers (Apis mellifera scutellata); test: Classical conditioning of PER in honey bees: rutin, kaempferol, p-coumaric acid vs fipronil; type: in vivo; settings: for latency of response relative to Control bees: Dunnett's method; for learning score relative to Control bees: score 0-10, 1 μM rutin, 131 μM kaempferol, 200 μM p-coumaric acid or Mix twice a day for three days, 228 nM fipronil 10 μL three hours before training
Experimental: (§1) Honey bee foragers (Apis mellifera scutellata) were captured from established hives at the Apiary of the Universidad del Rosario (Bogota, Colombia) between 08:00 h and 10:00 h. Bees were ice-anesthetized and harnessed in plastic tubes and maintained under laboratory conditions for the duration of the experiment (five days). Food was provided twice a day in a volumen of 10 μL and varied in composition according to experimental treatments.
Bees were randomly allocated to one of the following treatments administered twice a day for three consecutive days (all concentrations are final):
Control: 1M sucrose water (10 μL)
Rut: 1 μM rutin (Sigma-Aldrich: R5143)-1M sugar water (10 μL)
Kaemp:131 μM kaempferol (Sigma-Aldrich:K0133)+1M sugar water (10 μL)
p-Cou A: 200 μM p-coumaric acid (Sigma-Aldrich:C9008) diluted in 1M sugar water (10 μL)
Mix: 1 μM rutin, 131 μM kaempferol and 200 μM p-Coumaric acid): Bees fed with composition diluted in 1M sugar water (10 μL) fed twice a day for three days
On the fourth day, bees were randomly assigned to one of two treatments three hours before training:
Fipronil: 10 μL of 228 nM Fipronil (Astuto Invesa) in 1M sucrose water
Sucrose solution: 10 μL 1M sucrose water
Thus, bees belong to one of ten treatments: Control, Kaemp, Rut, p-Cou A, Mix, Fipro, Kaemp+Fipro, Rut+Fipro, p-Cou A+Fipro, Mix+Fipro.
Bees were trained using classical conditioning of the proboscis extension response (PER). Briefly, bees received a soft current of clean air for 15 seconds to allow bees to accommodate. Then a soft current of 1-hexanol (Sigma-Aldrich: 471402) was injected for 10 seconds. Six seconds after injection of 1-hexanol, one of the antennae was stimulated with sugar water (1.5M), which leads to the reflexive extension of the proboscis, and the bee was allowed to drink for 4 seconds. Thus, the reward and the stimulus overlapped for four seconds. This sequence, recognized as a training trial, was repeated eleven times. Time was determined using a metronome (2 Hz). Memory retention was tested 24 hours after the eleven training trials. […] 12 bees were trained each session. Training was conducted by an experimenter blind to treatment.
(§2) Learning for each individual was quantified as the number of conditioned PER responses across the trials. Thus, for each bee a learning score between zero and ten (0-10) was recorded.
(§3) Multiple comparisons were then run comparing learning score relative to Control bees using a non-parametric one or two-tailed Steel Method depending upon predictions. These comparisons informed us about the predicted impairment produced by the insecticides, the predicted innocuous effect of the flavonoid and the potential level of protection. Error due to multiple comparisons was controlled using the False Discovery Rate method (FDR-two stage sharpened method). In all cases corrected p-values (q-values) are presented.
(§4) Memory retention was quantified as a nominal variable (yes/no). Data were compared across treatments using a Chi-square test, followed by multiple comparisons of all treatments vs. Control. Error due to multiple comparisons was controlled using the FDR as indicated above. In all cases corrected p-values (q values) are presented.
(§5) Latency was quantified as a continuous variable between 0.5 s and 10 s. Data were compared across treatments using an ANOVA following a Log transformation to normalize the distribution (Shapiro-Wilk W Test after log transformation: p>0.05 for all treatments for the null hypothesis that data is from a normal distribution), followed by multiple comparisons between all treatments and the Control group (Dunnett's method). Error due to multiple comparisons was controlled using the FDR method as indicated above. In all cases corrected p-values (q-values) are presented.

[2] = system: bumblebee Bombus impatiens; test: Olfactory conditioning of PER in bumblebees: ad libitum rutin vs acute imidacloprid or fipronil; type: in vivo
Experimental: One colony of the bumblebee Bombus impatiens (Koppert Inc) was kept in laboratory conditions. Bees received pollen inside the nests and foraged to a 1M sugar-water feeder outside of the nest. Bees were collected while on the feeder and iced anesthetized to then be randomly assigned to one of two plastic containers where ad libitum self-administration of one of two solutions was allowed to 10 bees: i) 1 M sucrose water or ii) 1 μM Rutin (Sigma-Aldrich R5143) diluted in 1M sucrose water. On the night of the third day, the feeder was removed to starve the bees. On the fourth day, the bees were iced anesthetized and yolked restrained in plastic pipettes. Bees were maintained in the pipettes for the rest of the experiment (two days). One hour after harnessing, the bees were randomly assigned to one of three treatments: i) 20 μL of 1M sucrose water, ii) 20 μL of 1M sucrose water+5 nM imidacloprid, iii) 20 μL of 1M sucrose water+6 nM fipronil. Thus, overall bees belonged to one of six treatments:
Control: ad libitum sucrose water for three days and 20 μL of sucrose water before training
Rutin: ad libitum 1 μM Rutin for three days and 20 μL of sucrose water before training
Imid: ad libitum sucrose water for three days and 20 μL of 5 nM Imidacloprid in 1M sugar water 2 hours before training
Rutin+Imid: ad libitum 1 μM Rutin for three days and 20 μL of 5 nM Imidacloprid in 1M sugar water 2 hours before training
Fipronil: ad libitum sucrose water for three days and 20 μL of 5 nM fipronil in 1M sucrose water 2 hours before training
Rutin+Fipronil: ad libitum […] Rutin for three days and 20 μL of 6 nM fipronil in 1M sugar water 2 hours before training
(§6) All bees were blind-trained using olfactory conditioning of the proboscis extension response (PER). Briefly, bees were exposed to a presentation of 1-nonanol (Sigma-Aldrich) for 10 s. After 7 s of the onset of the odor presentation, the antenna was stimulated with 1.5 M sugar-water to elicit the PER. Following the PER, the bee was allowed to drink sugar-water for 3 s. Each paired presentation was considered a training trial and each individual received eleven training trials with an average intertrial interval of 10 minutes. After training, all bees were fed 20 μL of 1M sugar water and maintained in plastic boxes for 24 h until the retention test. […] Twenty-four hours after the last training trial the bees were presented with the conditioned odor for 10 s.
as §2, §3, §4
as §5, with “group.” for “group (Dunnett's method).”, “In all cases corrected p-values (q-values) are presented.” left out

[3] = system: bumblebee Bombus impatiens; test: Olfactory conditioning of PER in bumblebees: self-administered rutin vs chronic fipronil; type: in vivo
Experimental: One colony of the bumblebee Bombus impatiens (Koppert Inc) was kept in laboratory conditions. Bees received pollen inside the nests and foraged to a 1M sugar-water feeder outside of the nest. Bees were collected while on the feeder and iced anesthetized to then be randomly assigned to one of four plastic containers where self-administration of one of two solutions was allowed to 10 bees out of two feeders (glass vials with 500 μL of solution each): i) 1 M sucrose water or ii) 1 μM Rutin (Sigma-Aldrich R5143) diluted in 1M sucrose water. Feeders were refilled each day for three days. On the night of the third day, one of the vials was replaced by a new one with one of two solutions: i) 1 M sucrose water or ii) 1M sucrose water+6 nM fipronil. Feeders were refilled each day for three more days, thus providing a chronic exposure to fipronil. On the night of the […] day, bees were iced anesthetized and yolked restrained in plastic pipettes. Thus, bees belonged to one of four treatments:
Control: self-administered sucrose water for six days
Rut: self-administered rutin for six days
Fipro: self-administered sucrose water for three days followed by three days of self-administered sucrose water (one feeder) and fipronil (one feeder).
Rut+Fipro: self-administered rutin for three days followed by three days of self-administered rutin (one feeder) and fipronil (one feeder).
as §6, §2
as §3, with “fipronil,” for “insecticides,”, “rutin” for “flavonoid”
as §4
Latency was quantified as a continuous variable between 0.5 s and 10 s. […]

[4] = system: Honey bee foragers (Apis mellifera scutellata); test: Sucrose responsiveness (sensory sensitivity) of honey bees: flavonoids vs deltamethrin; type: in vivo; settings: for sensitivity (sucrose responsiveness, total PER score) relative to Control bees: honey bees, rutin 1 μM, kaempferol 131.7 μM or both for one day, 17.81 μM deltamethrin next day, pooled score
Experimental: as §1, with “(three” for “(five”, “days).” for “days). Food was provided twice a day in a volumen of 10 μL and varied in composition according to experimental treatments.”
On the first day, bees were randomly allocated to one of four treatments administered as two doses (morning: 20 μL; afternoon:10 μL): i) Control (1M sucrose solution), ii) Rutin 1 μM (Sigma-Aldrich R5143), iii) Kaempferol 131.7 μM (Sigma-Aldrich K0133), iv) Rutin-Kaempferol composition (final concentration of […] rutin and 131.7 μM kaempferol). All solutions were diluted in 1M sucrose solution to the concentrations described above. The next day, bees from each group were randomly assigned to one of two treatments: […] of 1M sucrose solution or 17.81 μM deltamethrin (Dinastia Bayer). Thus, bees belonged to one of eight treatments: i) Sucrose water (Control), ii) Rutin (Rut), iii) Kaempferol (Kaemp), iv) Kaempferol+Rutin (Kaemp+Rut), v) Deltamethrin (Delta), vi) Rutin+Deltamethrin (Rut+Delta), vii) Kaempferol+Deltamethrin (Kaemp+Delta), viii) Kaempferol+Rutin+Deltamethrin ((Kaemp+Rut)+Delta). All solutions were diluted in 1M sugar water to the concentrations described above.
Sensory sensitivity was evaluated using responsiveness to sucrose, a proxy of resource exploitation by foragers. On the second day, bees of the eight treatments described above were tested five times for their response threshold (0 h, 1 h, 2 h, 3 h and 4 h). The first measure (0 h) was done prior to pesticide administration. Bees were tested with an ascending sucrose concentration of 0.1, 0.3, 1, 3, 10 and 30% (w/w). Between each concentration, the bees were presented with pure water as a control for potential sensitization or habituation (Pankiw et al., Behav Ecol Sociobiol (2000) 47:265-267). The inter-trial time between the presentation of each sucrose concentration was at least 4 minutes. For each presentation, the reflexive extension of the proboscis (tongue) of the bee, after antennal stimulation with the solution was recorded. After the last measure (4 h), bees were fed with 10 μL of 1M sucrose solution and maintained until the next day for a final test (24 hours after pesticide administration).
For each bee, a responsiveness score was determined (0-7) 0 h, 1 h, 2 h, 3 h, 4 h and 24 h, and a pooled scored (0-42). Normal distribution of the scores was tested using Shapiro-Wilk W Test for the null hypothesis that data is from a Normal distribution. […] Thus, non-parametric tests were used for comparisons across treatments and for multiple comparisons. Overall changes of responses across different concentrations were evaluated using repeated-measured MANOVA. Error associated with multiple comparisons was controlled using the Two-stage sharpened False Discovery Rate, and corrected p-values (q-values) are presented. Data were explored for outliers using a single run of Robust Fit outliers test. All analyses were conducted using JMP v.14 (SAS Institute Inc.)

AChE = settings: literature report; cited from earlier work
[5] = system: butyrylcholinesterase (BChE); settings: literature report; cited from earlier work
[6] = bumblebees, 24 h retention test

In the case of `O=C(O)/C=C/c1ccc(O)cc1` [p-CouA, p-coumaric acid], the “latency of response relative to Control bees” value [1] is reported as “not significantly different from Control” and the “learning score relative to Control bees” value ([1]; honey bees) is reported as “not significantly different from Control bees”.
In the case of `N#Cc1nn(-c2c(Cl)cc(C(F)(F)F)cc2Cl)c(N)c1[S+]([O-])C(F)(F)F` (stereo not drawn) [Fipronil], the “odds of remembering for Control bees relative to insecticide bees” value ([2]; 24 h retention) is reported as 3.4 times, the “proportion difference Control minus insecticide group for a PER response (Adjusted Wald test)” value ([2]; 24 h retention) is reported as 0.30 and the “decision-making ratio (latency of response / learning score) relative to Control bees” value ([2]; bumblebees) is reported as “significant increase”. For the same compound, the “bees exhibiting a conditioned response after 24 h” value [2, 6] was 34.6%, the “learning score relative to Control bees” value ([2]; bumblebees, score 0-10, ad libitum 1 μM rutin three days, 5 nM imidacloprid or 6 nM fipronil 20 μL 2 hours before training) was “significantly lower” and the “proportion difference Control minus treatment for a PER response (Adjusted Wald test)” value ([1]; 24 h retention) was 0.545. The “bees exhibiting a conditioned response after 24 h” value ([1]; honey bees, 24 h retention test) was “None”, the “learning score relative to Control bees” value ([1]; honey bees) was “significantly lower” and the “odds of remembering for Control bees relative to Fipro bees” value ([3]; 24 h retention) was 8.7 times. The “proportion difference Control-Fipro for a PER response (Adjusted Wald test)” value ([3]; 24 h retention) was 0.48, the “bees exhibiting a conditioned response after 24 h” value [3, 6] was 33.3% and the “learning score relative to Control bees” value ([3]; bumblebees, score 0-10, self-administered 1 μM rutin six days, 6 nM fipronil feeder for the last three days (chronic)) was “significantly lower”.
For `O=c1c(O)c(-c2ccc(O)cc2)oc2cc(O)cc(O)c12` [Kaemp, Kaempferol], the “sensitivity (sucrose responsiveness, total PER score) relative to Control bees” value [4] was “not significantly affected”, the “latency of response relative to Control bees” value [1] was “not significantly different from Control” and the “learning score relative to Control bees” value ([1]; honey bees) was “not significantly different from Control bees”.
In the case of `C=CC(C)(C)c1c2c(c(O)c3c(=O)c4ccc(O)c(O)c4oc13)C=CC(C)(C)O2` [macluraxanthone], the “inhibition of AChE” value (AChE) is given as “concentration-dependent inhibition ability” and the “inhibition of butyrylcholinesterase (BChE)” value [5] is given as “concentration-dependent inhibition ability”.
With `CC1(C)[C@H](C(=O)O[C@H](C#N)c2cccc(Oc3ccccc3)c2)[C@@H]1C=C(Br)Br` [Deltamethrin] the “sensitivity 24 h after administration of the insecticide relative to Control bees” value ([4]; 24 h) was “lowest sensitivity”, the “bees responding to 30% sucrose water” value ([4]; after 4 hours) was “less than 30%” and the “improvement in response to 30% sucrose water” value ([4]; after 24 hours) was 10%. For the same compound, the “bees responsive to 30% sucrose-water” value ([4]; after one hour) was “less than 40%” and the “sensitivity (sucrose responsiveness, total PER score) relative to Control bees” value [4] was “significantly lower”.
